Patent publication US9243068B2, “Combination of SEMA-4D inhibitors and immunomodulators to inhibit tumors and metastases” (Vaccinex, Inc., priority 2013, dated 2016)

Tested on: Colon26 tumor cells
Assay: Colon26 tumor growth, combination with cyclophosphamide (Example 8)
Assay type: in vivo
Details: Colon26 in Balb/c mice; anti-SEMA4D 50 mg/kg IP weekly; cyclophosphamide 50 mg/kg IP days 12 and 20
Experimental: Experimental Design. 5×10^5 Colon26 tumor cells were implanted subcutaneously into the flank of female Balb/c mice. […] There were 20 mice per group. Tumors were measured with calipers 3×/week starting 5 days post implant. Animals were sacrificed when tumor volume reached 1000 mm^3.
Tumor growth was measured by calipers and measurements were used to calculate tumor volume using the formula (w^2×I)/2, where w=width, smaller measurement, and l=length, in mm, of the tumor.
Regression is the lack of palpable tumor, defined by a tumor measuring <50 mm^3 for at least two consecutive measurements.

SMILES: O=P1(N(CCCl)CCCl)NCCCO1 (stereo not shown) [cyclophosphamide]
- Tumor Growth Delay (TGD): 96%
